# ChEMBL document CHEMBL3886319, “Amidopyrazole inhibitors of interleukin receptor-associated kinases” (2015)
# Target: T1, Interleukin-1 receptor-associated kinase 4 (Homo sapiens, UniProt Q9NWZ3)
# T1 sequence (Q9NWZ3 whole entry): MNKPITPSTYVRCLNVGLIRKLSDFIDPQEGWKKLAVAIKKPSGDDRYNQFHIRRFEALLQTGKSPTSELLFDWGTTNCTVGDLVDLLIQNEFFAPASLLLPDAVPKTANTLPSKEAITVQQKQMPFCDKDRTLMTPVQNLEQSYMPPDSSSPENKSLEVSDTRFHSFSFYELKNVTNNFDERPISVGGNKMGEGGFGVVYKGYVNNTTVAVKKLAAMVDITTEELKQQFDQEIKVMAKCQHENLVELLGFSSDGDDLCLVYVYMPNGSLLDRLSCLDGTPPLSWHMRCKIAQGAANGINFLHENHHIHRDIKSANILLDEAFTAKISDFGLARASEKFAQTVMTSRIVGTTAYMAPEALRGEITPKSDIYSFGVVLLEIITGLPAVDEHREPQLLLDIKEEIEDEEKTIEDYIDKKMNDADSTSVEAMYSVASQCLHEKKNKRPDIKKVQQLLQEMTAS
# Assay: Kinase Assay: The kinase activity of IRAK-4 is determined by its ability to catalyze the phosphorylation of a fluorescent polypeptide substrate. The extent of phosphorylation is measured using the IMAP technology (Molecular Devices) where the phosphorylated fluorescent substrate binds to the large M(III)-based nanoparticles which reduces the rotational speed of the substrate and thus increases its fluorescent polarization (FP). 20 μl reaction mixture contains 10 mM TriHCl, pH 7.2, 0.5 nM GST tagged IRAK-4 (SignalChem), 100 nM fluorescent peptide substrate (RP7030, Molecular Devices), 100 μM ATP, 1 mM DTT, 1 mM MgCl2, and 0.01% Tween 20. The reaction is initiated by the addition of ATP. After incubation for 30 minutes at 25° C., 60 μl of Progressive IMAP Reagent (Molecular Devices) is added to stop the reaction. Change in RP7030's FP is determined by a FP reader (Analyst HT, LH, BioSystems).
row,Structure (SMILES),IC50 [nM]
1,CS(=O)(=O)N1CCC(c2cc(NC(=O)c3cnn4cccnc34)n(-c3ccccc3)n2)CC1,< 1000
2,O=C(Nc1cc(C2CCN(C3CCC3)CC2)nn1-c1ccc(C2CC2)cn1)c1cnn2cccnc12,< 100
3,Cc1ccc(-n2nc(C3CCN(C(C)C(=O)N4CCCC4)CC3)cc2NC(=O)c2cnn3cccnc23)cc1 (configuration not stated),< 100
4,CCOC(=O)N1CCC(N2CCC(c3cc(NC(=O)c4cnn5cccnc45)n(-c4ccc(C)cc4)n3)CC2)CC1,< 100
5,COc1ccc(-n2nc(C3CCN(S(C)(=O)=O)CC3)cc2NC(=O)c2cnn3cccnc23)nc1,< 1000
6,Cc1cnc(-n2nc(C3CCNCC3)cc2NC(=O)c2cnn3cccnc23)nc1,> 1000
7,Cc1ccc(-n2nc(C3CCN(S(C)(=O)=O)CC3)cc2NC(=O)c2cnn3cc(Br)cnc23)nc1,< 100
8,Cc1ccc(-n2nc(-c3cncc(N4CCN(C)CC4)c3)cc2NC(=O)c2cnn3cccnc23)cc1,< 1000
9,Cc1ccc(-n2nc(C3CCN(S(C)(=O)=O)CC3)cc2NC(=O)c2cnn3cc(Br)cnc23)cc1,< 1000
10,CC(=O)N1CCC(N2CCC(c3cc(NC(=O)c4cnn5cccnc45)n(-c4ccc(C)cc4)n3)CC2)CC1,< 100
11,Cc1cnc(-n2nc(C3CCN(S(C)(=O)=O)CC3)cc2NC(=O)c2cnn3cccnc23)cn1,> 1000
12,Cc1ccc(-n2nc(-c3ccc(S(=O)(=O)N4CCOCC4)cc3)cc2NC(=O)c2cnn3cccnc23)cc1,< 100
13,Cc1ccc(-n2nc(C3CCN(C4CCN(C5CC5)CC4)CC3)cc2NC(=O)c2cnn3cccnc23)cc1,< 1000
14,Cc1ccc(-n2nc(C3CCN(CC(C)C)CC3)cc2NC(=O)c2cnn3cccnc23)nc1,< 100
15,Cc1ccc(-n2nc(C3CCN(S(=O)(=O)C4CC4)CC3)cc2NC(=O)c2cnn3cccnc23)nc1,< 100
16,Cc1ccc(-n2nc(C3CCN(C)CC3)cc2NC(=O)c2cnn3cccnc23)c(F)c1,< 1000
17,COc1ccc(-n2nc(C3CCNCC3)cc2NC(=O)c2cnn3cc(C4CC4)cnc23)cc1,< 1000
18,Cc1ccc(-n2nc(C3CCN(C4CCC(C(F)(F)F)CC4)CC3)cc2NC(=O)c2cnn3cccnc23)cc1 (configuration not stated),< 100
19,CS(=O)(=O)N1CCC(c2cc(NC(=O)c3cnn4cccnc34)n(-c3ccc(CN)cn3)n2)CC1,< 100
20,C#Cc1cnc2c(C(=O)Nc3cc(C4CCN(S(C)(=O)=O)CC4)nn3-c3ccc(C)cn3)cnn2c1,< 100
21,Cc1ccc(-n2nc(C3CCN(S(C)(=O)=O)CC3)cc2NC(=O)c2cnn3cc(C)cnc23)cc1,< 1000
22,CNC(C)c1ccc(-n2nc(C3CCN(S(C)(=O)=O)CC3)cc2NC(=O)c2cnn3cccnc23)nc1 (configuration not stated),< 1000
23,CS(=O)(=O)N1CCC(c2cc(NC(=O)c3cnn4cccnc34)n(-c3ccc(CO)cn3)n2)CC1,< 100
24,Cc1ccc(-n2nc(C3CCN(C4CNC4)CC3)cc2NC(=O)c2cnn3cccnc23)cc1,< 1000
25,CS(=O)(=O)N1CCC(c2cc(NC(=O)c3cnn4cccnc34)n(CCN)n2)CC1,< 1000
26,Cc1ccc(-n2nc(C3CCN(C(C)C(=O)N4CCCCC4)CC3)cc2NC(=O)c2cnn3cccnc23)cc1 (configuration not stated),< 1000
27,Cc1ccc(-n2nc(C3CCN(C(C)C(C)C)CC3)cc2NC(=O)c2cnn3cccnc23)cc1 (configuration not stated),< 1000

# Next, values leading:
row,IC50 [nM],Structure (SMILES)
1,< 100,Cc1ccc(-n2nc(-c3ccnc(CN4CCCCC4)c3)cc2NC(=O)c2cnn3cccnc23)cc1
2,< 1000,Cc1ccc(-n2nc(C3CCCN(CC4CCOC4)C3)cc2NC(=O)c2cnn3cccnc23)cc1 (configuration not stated)
3,< 1000,COc1ccc(CN2CCC(c3cc(NC(=O)c4cnn5cccnc45)n(-c4ccc(C)cc4)n3)CC2)cn1
4,< 1000,Cc1ccc(-n2nc(C3CCCN(Cc4ccc(F)cn4)C3)cc2NC(=O)c2cnn3cccnc23)cc1 (configuration not stated)
5,< 1000,Cc1ccc(-n2nc(C3CCN(S(C)(=O)=O)C3)cc2NC(=O)c2cnn3cccnc23)cc1 (configuration not stated)
6,< 1000,Cc1ccc(-n2nc(C3CCCN(Cc4cccnc4F)C3)cc2NC(=O)c2cnn3cccnc23)cc1 (configuration not stated)
7,< 1000,Cc1ccc(-n2nc(C3CCCN(Cc4cn[nH]c4)C3)cc2NC(=O)c2cnn3cccnc23)cc1 (configuration not stated)
8,< 100,Cc1ccc(-n2nc(C3CCCN(Cc4cccc5c4CNC5=O)C3)cc2NC(=O)c2cnn3cccnc23)cc1 (configuration not stated)
9,< 1000,Cc1ccc(-n2nc(C3CCCN(Cc4ncco4)C3)cc2NC(=O)c2cnn3cccnc23)cc1 (configuration not stated)
10,< 1000,Cc1ccc(-n2nc(C3CCCN(Cc4cccnc4)C3)cc2NC(=O)c2cnn3cccnc23)cc1 (configuration not stated)
11,< 1000,COc1ccc(CN2CCCC(c3cc(NC(=O)c4cnn5cccnc45)n(-c4ccc(C)cc4)n3)C2)cn1 (configuration not stated)
12,< 1000,Cc1ccc(-n2nc(C3CCCN(Cc4ccncc4)C3)cc2NC(=O)c2cnn3cccnc23)cc1 (configuration not stated)
13,< 1000,Cc1ccc(-n2nc(C3CCCN(Cc4cnc(N(C)C)s4)C3)cc2NC(=O)c2cnn3cccnc23)cc1 (configuration not stated)
14,< 1000,Cc1ccc(-n2nc(C3CCN(C(C)c4cccc(F)n4)CC3)cc2NC(=O)c2cnn3cccnc23)cc1 (configuration not stated)
15,< 100,Cc1ccc(-n2nc(C3CCCN(Cc4ccc(S(C)(=O)=O)cc4)C3)cc2NC(=O)c2cnn3cccnc23)cc1 (configuration not stated)
16,< 1000,Cc1ccc(-n2nc(C3CCCN(Cc4ccc5c(c4)C(=O)NC5)C3)cc2NC(=O)c2cnn3cccnc23)cc1 (configuration not stated)
17,< 100,Cc1ccc(-n2nc(C3CCCN(Cc4ccn[nH]4)C3)cc2NC(=O)c2cnn3cccnc23)cc1 (configuration not stated)
18,< 1000,COc1ncc(CN2CCCC(c3cc(NC(=O)c4cnn5cccnc45)n(-c4ccc(C)cc4)n3)C2)cn1 (configuration not stated)
19,< 1000,CCn1nccc1CN1CCCC(c2cc(NC(=O)c3cnn4cccnc34)n(-c3ccc(C)cc3)n2)C1 (configuration not stated)
20,< 1000,Cc1ccc(-n2nc(C3CCCN(Cc4ccccn4)C3)cc2NC(=O)c2cnn3cccnc23)cc1 (configuration not stated)
